Measurements as given in patent US20240009214A1 (priority 2020, published 2024).
Where a name gives a salt, the structure may show the parent alone.

Tests used:
[1] = In vitro toxicity in Calu-3 cells (MTS-PMS kit); format: cell-based; settings: human, Calu-3 human lung bronchial cells, read-out: IC50 (cytotoxicity)
Excerpt: (§1) The toxicity of ((((((R)-1-(6-amino-9H-purin-9-yl) propan-2-yl) oxy) methyl) (phenoxy) phosphoryl)oxy)methyl pivalate fumarate and Metabolite of compound of formula 1 in different human lung cells viz, WI-38 (human lung fibroblast cells) and Calu-3 (human lung bronchial cells) by using the MTS-PMS kit investigated.
(§2) MTS-PMS kit details (CellTiter 96@ Aqueous kit)
This is a colorimetric method for determining the number of viable cell measures viable cells in proliferation, cytotoxicity or chemosensitivity assays. […] The absorbance of the formazan product at 490 nm can be measured directly from 96-well assay plates without additional processing. […] The quantity of formazan product as measured by the amount of 490 nm absorbance is directly proportional to the number of living cells in culture.
Respective cells were harvested from exponential phase cultures, […] on the cell line's growth rate. […] Following an incubation period of up to four hours, the plate was read to 490 nm. […]
Cells were harvested from exponential phase cultures, […] on the cell line's growth rate. […] Following an incubation period of up to four hours, the plate was read to 490. […]

[2] = tested on: A549 (human lung alveolar cells) monolayer
[3] = In vitro toxicity in WI-38 cells (MTS-PMS kit); format: cell-based; settings: human, WI-38 human lung fibroblast cells, read-out: IC50 (cytotoxicity)
Excerpt: as §1, §2
This is a colorimetric method for determining the number of viable cell measures viable cells in proliferation, cytotoxicity or chemosensitivity assays. The assay is composed of solutions of a novel tetrazolium compound [3-(4,5-dimethylthiazol-2-yl)-5-(3-carboxymethoxyphenyl)-2-(4-sulfophenyl)-2H-tetrazolium, inner salt; MTS] and an electron coupling reagent (phenazine methosulfate) PMS. MTS is bioreduced by cells into a formazan product that is soluble in tissue culture medium. The absorbance of the formazan product at 490 nm can be measured directly from 96-well assay plates without additional processing. The conversion of MTS into the aqueous soluble formazan product is accomplished by dehydrogenase enzymes found in metabolically active cells. The quantity of formazan product as measured by the amount of 490 nm absorbance is directly proportional to the number of living cells in culture.
Respective cells were harvested from exponential phase cultures, […] on the cell line's growth rate. After a 24 h recovery period to allow the cells to resume exponential growth. TPF or Metabolite of compound of formula 1 was applied at 6-8 concentrations in duplicate and treatment continued for different time points. After completion of incubation 20 μL/well MTS-PMS reagent was added to each well (MTS-PMS was prepared as follows: CellTiter 96@AQueous Assay Reagents MTS Solution and the PMS Solution should be thawed before use. Remove 2.0 ml of MTS Solution. Add […] of PMS Solution to the 2.0 ml of MTS Solution immediately). Following an incubation period of up to four hours, the plate was read to 490 nm. For calculations, the mean values of duplicate data were used. Sigmoidal concentration-response curves were fitted to the data points (T/C values) obtained for each cell line using 4 parameter non-linear curve fit.
Cells were harvested from exponential phase cultures, […] on the cell line's growth rate. After a 24 h recovery period to allow the cells to resume exponential growth. TPF or Metabolite of compound of formula 1 was applied at 6-8 concentrations in duplicate and treatment continued for different time points. For Calu-3 cells the treatment was the treatment was for 72 hrs while WI-38 cells were treated for 48 and 96 hrs. After the treatment of cells, 20 μL/well MTS-PMS reagent was added. Following an incubation period of up to four hours, the plate was read to 490. […]

[4] = tested on: SARS-COV-2 strain NIV 2020-770; assay: microbe, parasite or virus in culture; format: cell-based; settings: for IC50: Severe acute respiratory syndrome coronavirus 2, 72 h; for SI (selectivity index): against SARS-CoV-2
[5] = Cell cytotoxicity determination (MTT) in Vero CCL-81 cells; format: cell-based; settings: monkey
Method: Cell Cytotoxicity determination: 100 μL Vero CCL-81 cells were seeded on to 96 well plate at a density of 3×10^6 cells/mL. The plates were incubated for 24 hrs at 37° C. with 5% CO2. After overnight incubation the spent medium was discarded and 100 μL of different concentrations of each drugs prepared earlier from the stock was added to the respective wells in quadruplets. The plates were incubated for 72 hr at 37° C. in 5% CO2. After the incubation, the medium containing drug was discarded. The cell monolayer was washed by adding 100 μL of 1×PBS. 100 μL of plain MEM and 50 μl of MTT (2 mg/ml concentration) was added to each well. Followed by incubation for 4 hrs at 37° C. in 5% CO2. At the end of incubation, the cell supernatant was discarded and 200 μl of DMSO was added to each well to dissolve the formazan crystals. 25 μL of Sorensen's glycine buffer was added immediately to each well. The plates were incubated in dark for 30 min at room temperature. The OD was measured at 570 nm using ELISA plate reader. CC50 value was plotted using Prism Pad application.

in vitro = settings: human

Question: What does the source list for `C[C@H](Cn1cnc2c(N)ncnc21)OC[P@@](=O)(OCOC(=O)C(C)(C)C)Oc1ccccc1` [((((((R)-1-(6-amino-9H-purin-9-yl)propan-2-yl)oxy)methyl) (phenoxy)phosphoryl)oxy)methyl pivalate fumarate]?
Answer: IC50 at 72 h [1]: > 100 µM; permeability classification [2]: highly permeable; P-app ([2]; apical to basal): > 200 nm/s; IC50 at 48 h [3]: > 100 µM; IC50 at 96 h [3]: > 100 µM; IC50 [4]: < 1 µM; SI (selectivity index) ([4]; window between cytotoxicity (CC50) and antiviral activity (IC50), fumarate): >100; SI (selectivity index) ([4]; window between cytotoxicity (CC50) and antiviral activity (IC50); fumarate)): > 100; CC50 at 72 h [5]: > 100 µM

Question: With `C[C@H](Cn1cnc2c(N)ncnc21)OCP(=O)(O)Oc1ccccc1` [Compound of formula 2, tenphenol] as the compound, how does the IC50 at 72 h [1] read?
Answer: > 100 µM

Question: What about the permeability classification [2] of the same compound?
Answer: moderately permeable

Question: What about the IC50 at 48 h [3] of the same compound?
Answer: > 100 µM

Question: What about the IC50 at 96 h [3] of the same compound?
Answer: > 100 µM

Question: What about the Papp A→B (in vitro) of the same compound?
Answer: < 20 ×10⁻⁶ cm/s

Question: And the IC50 [4]?
Answer: ~12 µM

Question: What about the “SI (selectivity index)” value ([4]; window between cytotoxicity (CC50) and antiviral activity (IC50)) of the same compound?
Answer: >8.33

Question: What about the “SI (selectivity index)” value ([4]; window between cytotoxicity (CC50) and antiviral activity (IC50), listed as compound of formula 2) of the same compound?
Answer: 8.33

Question: And the CC50 at 72 h [5]?
Answer: > 100 µM
